System: cardiomyocytes from double knock-in human iPS cell lines (mCherry at TNNI3 locus)
Assay: Experimental Example 1: mCherry (TNNI3 reporter) immunostaining measured by high contents screening
Assay type: cell-based
Parameters: key to average fluorescent intensity (at 30 μM): —: The symbol in Table 2 means that the average fluorescent intensity cannot be evaluated due to cell decrease
Conditions: read on 8th day, Alexa 647 anti-mCherry, control well 797; for average fluorescent intensity (at 1 μM): test compound 1 μM added on 3rd and 6th culture days; for average fluorescent intensity (at 30 μM): test compound 30 μM added on 3rd and 6th culture days
Experimental: For detection of cardiomyocyte maturation, double knock-in human iPS cell lines, in which reporter protein sequences, EmGFP (Sequence Number 1) and mCherry (Sequence Number 2) were inserted into gene loci for TNNI1 and TNNI3, respectively, were prepared (the human iPS cells were prepared from episomal vector (loaded gene; OCT3/4, KLF4, SOX2, L-MYC, LIN28, mouse p53DD) using PBMC (LP_167, Sample ID: 20130318) purchased from CTL (reference literature; Okita K, et al. Stem Cells. 2012 Nov. 29. doi: 10.1002/stem.1293)).
The maintenance culture of the above-mentioned reporter iPS cell lines was carried out by a conventional method (Okita K, et al. Stem Cells. 2012 Nov. 29. doi: 10.1002/stem.1293).
For differentiation induction into cardiomyocytes, the reporter iPS cell lines were treated with 0.5×TrypLE select (Life Technologies, diluted in 1/2 with 0.5 mM EDTA/PBS) for 4 to 5 minutes, and the cells were exfoliated using a cell scraper (IWAKI), and then dissociated into the single cell by pipetting. The medium was removed by centrifugation (1,000 rpm, 5 min), and the obtained cells were seeded on a bioreactor (ABLE) by 1×10^7 cells per 30 mL of the bioreactor, and then cultured in a medium prepared by adding 1% L-glutamine, transferrin 150 μg/mL, ascorbic acid 50 μg/mL (Sigma), monothioglycerol 4×10^−4 M, 10 μM Rock inhibitor (Y-27632), 2 ng/mL BMP4 (R&D) and 0.5% Matrigel (Growth Factor Reduced) to a medium after removal of solution C from StemFit AK02 (AJINOMOTO AK02, 400 mL of solution A and 100 mL of B solution, total 500 mL), at 37° C., under 5% oxygen condition (55 rpm, stirred suspension culture method) to form embryoid bodies (0 day).
Next day (1st day), 9 μL (final concentration 3 ng/mL) of 10 μg/mL activin A, 15 μL (final concentration 5 ng/mL) of 10 μg/mL bFGF and […] (final concentration 10 ng/mL) of 10 μg/mL BMP4 were added to the bioreactor, and the cells were cultured at 37° C. for additional 2 days, under 5% oxygen condition.
Then (3rd day), the obtained embryoid bodies were collected in a 50 mL centrifuge tube, and then subjected to centrifugation (200 g, 1 min). The medium was removed, and the embryoid bodies were cultured in a medium prepared by adding 1% L-glutamine, transferrin 150 μg/mL, ascorbic acid 50 μg/mL (Sigma), monothioglycerol 4×10^−4 M, 10 ng/mL VEGF, 1 μM IWP-3, 0.6 μM dorsomorphin and 5.4 μM SB431542 to a medium after removal of solution C from StemFit AK02 (AJINOMOTO AK02, 400 mL of solution A and 100 mL of B solution, total 500 mL), at 37° C. for 3 days, under 5% oxygen condition (55 rpm, stirred suspension culture method).
Then (6th day), the bioreactor was left to stand to precipitate the embryoid bodies, and 80 to 90% of the medium was removed. A medium prepared by adding 1% L-glutamine, transferrin 150 μg/mL, ascorbic acid 50 μg/mL (Sigma), monothioglycerol […] and 5 ng/mL VEGF to a medium after removal of solution C from StemFit AK02 (AJINOMOTO AK02, 400 mL of solution A and 100 mL of B solution, total 500 mL) was added to the bioreactor so that the total volume became 30 mL, and the embryoid bodies were cultured for 8 days, at 37° C., under 5% oxygen condition (55 rpm, stirred suspension culture method). During the culture, the medium was replaced with a medium under the same conditions every 2 to 3 days.
14th Day after the start of the differentiation induction, the embryoid bodies were treated with 2 mg/mL collagenase type I (Sigma) for 2 hr, and then with 0.25% trypsin/EDTA (Invitrogen) for 10 min. 50% FBS/IMDM (Thermo Fisher Science) was added thereto, and the embryoid bodies were dissociated into the single cell by pipetting, and then subjected to centrifugation (1,000 rpm, 5 minutes). […]

SMILES	average fluorescent intensity (at 1 μM)	average fluorescent intensity (at 30 μM)
O=C(COc1ccc(-c2nc3cc(N4Cc5cc(N6CCOCC6)ccc5C4=O)ccc3[nH]2)cc1)N1CCCC1 [Example 34, 5-(morpholin-4-yl)-2-(2-(4-(2-oxo-2-(pyrrolidin-1-yl)ethoxy)phenyl)-1H-benzimidazol-5-yl)isoindolin-1-one]	1540	—
O=C(COc1ccc(-c2nc3cc(N4Cc5cc(N6CCOCC6)ccc5C4=O)ccc3[nH]2)cc1)Nc1ccncc1 [Example 35, 2-(4-(5-(5-(morpholin-4-yl)-1-oxo-1,3-dihydro-2H-isoindol-2-yl)-1H-benzimidazol-2-yl)phenoxy)-N-(pyridin-4-yl)acetamide]	1536	1204
O=C(COc1ccc(-c2nc3cc(N4Cc5cc(N6CCOCC6)ccc5C4=O)ccc3[nH]2)cc1)NCc1ccccc1 [Example 36, N-benzyl-2-(4-(5-(5-(morpholin-4-yl)-1-oxo-1,3-dihydro-2H-isoindol-2-yl)-1H-benzimidazol-2-yl)phenoxy)acetamide]	1006	1743
O=C(COc1ccc(-c2nc3cc(N4Cc5cc(N6CCOCC6)ccc5C4=O)ccc3[nH]2)cc1)Nc1ccccc1 [Example 37, 2-(4-(5-(5-(rnorpholin-4-yl)-1-oxo-1,3-dihydro-2H-isoindol-2-yl)-1H-benzimidazol-2-yl)phenoxy)-N-phenylacetamide]	1696	1290
CN(C)C(=O)COc1ccc(-c2nc3cc(N4Cc5cc(N6CCOCC6)ccc5C4=O)ccc3[nH]2)cc1 [Example 38, N,N-dimethyl-2-(4-(5-(5-(morpholin-4-yl)-1-oxo-1,3-dihydro-2H-isoindol-2-yl)-1H-benzimidazol-2-yl)phenoxy)acetamide]	1633	—
O=C1c2ccc(N3CCCCC3)cc2CN1c1ccc2[nH]c(C3CCNCC3)nc2c1 [Example 39, 5-(piperidin-1-yl)-2-(2-(piperidin-4-yl)-1H-benzimidazol-5-yl)isoindolin-1-one]	1042	1026
O=C1c2ccc(N3CCCCC3)cc2CN1c1ccc2[nH]c(-c3ccno3)nc2c1 [Example 40, 2-(2-(1,2-oxazol-5-yl)-1H-benzimidazol-5-yl)-5-(piperidin-1-yl)isoindolin-1-one]	1089	1327
O=C1c2ccc(N3CCCCC3)cc2CN1c1ccc2[nH]c(-c3cccs3)nc2c1 [Example 41, 5-(piperidin-1-yl)-2-(2-(2-thienyl)-1H-benzimidazol-5-yl)isoindolin-1-one]	1107	1571
CC(C)(C)OC(=O)N1CCC(c2nc3cc(N4Cc5cc(N6CCCCC6)ccc5C4=O)ccc3[nH]2)CC1 [Example 42, tert-butyl 4-(5-(1-oxo-5-(piperidin-1-yl)-1,3-dihydro-2H-isoindol-2-yl)-1H-benzimidazol-2-yl)piperidine-1-carboxylate]	980	1041
O=C1c2ccc(N3CCCCC3)cc2CN1c1ccc2[nH]c(C3CCOCC3)nc2c1 [Example 43, 5-(piperidin-1-yl)-2-(2-(tetrahydro-2H-pyran-4-yl)-1H-benzimidazol-5-yl)isoindolin-1-one]	1087	1153
O=C1c2ccc(N3CCCCC3)cc2CN1c1ccc2[nH]c(C3CCCCC3)nc2c1 [Example 44, 2-(2-cyclohexyl-1H-benzimidazol-5-yl)-5-(piperidin-1-yl)isoindolin-1-one]	1071	1141
O=C1c2ccc(N3CCCCC3)cc2CN1c1ccc2[nH]c(-c3ccccn3)nc2c1 [Example 47, 5-(piperidin-1-yl)-2-(2-(pyridin-2-yl)-1H-benzimidazol-5-yl)isoindolin-1-one]	1115	1348
CC(C)Oc1ccc(-c2nc3cc(N4Cc5cc(N6CCCCC6)ccc5C4=O)ccc3[nH]2)cc1 [Example 48, 2-(2-(4-isopropoxyphenyl)-1H-benzimidazol-5-yl)-5-(piperidin-1-yl)isoindolin-1-one]	1182	1408
CCCNC(=O)COc1ccc(-c2nc3cc(N4Cc5cc(N6CCOCC6)ccc5C4=O)ccc3[nH]2)cc1 [Example 49, 2-(4-(5-(5-(morpholin-4-yl)-1-oxo-1,3-dihydro-2H-isoindol-2-yl)-1H-benzimidazol-2-yl)phenoxy)-N-propylacetannide]	1382	890
COC(=O)COc1ccc(-c2nc3cc(N4Cc5cc(N6CCOCC6)ccc5C4=O)ccc3[nH]2)cc1 [Example 50, methyl (4-(5-(5-(morpholin-4-yl)-1-oxo-1,3-dihydro-2H-isoindol-2-yl)-1H-benzimidazol-2-yl)phenoxy)acetate]	1126	1717
O=C(O)COc1ccc(-c2nc3cc(N4Cc5cc(N6CCOCC6)ccc5C4=O)ccc3[nH]2)cc1 [Example 51, (4-(5-(5-(morpholin-4-yl)-1-oxo-1,3-dihydro-2H-isoindol-2-yl)-1H-benzimidazol-2-yl)phenoxy)acetic acid]	963	1279
O=C(COc1ccc(-c2nc3cc(N4Cc5cc(N6CCOCC6)ccc5C4=O)ccc3[nH]2)cc1)OCc1ccccc1 [Example 52, benzyl (4-(5-(5-(morpholin-4-yl)-1-oxo-1,3-dihydro-2H-isoindol-2-yl)-1H-benzimidazol-2-yl)phenoxy)acetate]	937	973
O=C1c2ccc(N3CCOCC3)cc2CN1c1ccc2[nH]c(-c3ccc(O)cc3)nc2c1 [Example 53, 2-(2-(4-hydroxyphenyl)-1H-benzimidazol-5-yl)-5-(morpholin-4-yl)isoindolin-1-one]	880	2812
CCCCCCOc1ccc(-c2nc3cc(N4Cc5cc(N6CCOCC6)ccc5C4=O)ccc3[nH]2)cc1 [Example 54, 2-(2-(4-(hexyloxy)phenyl)-1H-benzimidazol-5-yl)-5-(morpholin-4-yl)isoindolin-1-one]	838	—
O=C1c2ccc(N3CCOCC3)cc2CN1c1ccc2[nH]c(-c3ccc(OCc4ccccc4)cc3)nc2c1 [Example 55, 2-(2-(4-(benzyloxy)phenyl)-1H-benzimidazol-5-yl)-5-(morpholin-4-yl)isoindolin-1-one]	1092	—
O=C1c2ccc(N3CCOCC3)cc2CN1c1ccc2[nH]c(-c3ccc(Cl)cc3)nc2c1 [Example 56, 2-(2-(4-chlorophenyl)-1H-benzimidazol-5-yl)-5-(morpholin-4-yl)isoindolin-1-one]	1185	897

— patent US11401264B2, “Heterocyclic compound” (Orizuru Therapeutics, Inc., priority 2018, dated 2022)
